In this assay the target is T1, Proteinase-activated receptor 2 (Homo sapiens, UniProt P55085).
T1 sequence (P55085 whole entry): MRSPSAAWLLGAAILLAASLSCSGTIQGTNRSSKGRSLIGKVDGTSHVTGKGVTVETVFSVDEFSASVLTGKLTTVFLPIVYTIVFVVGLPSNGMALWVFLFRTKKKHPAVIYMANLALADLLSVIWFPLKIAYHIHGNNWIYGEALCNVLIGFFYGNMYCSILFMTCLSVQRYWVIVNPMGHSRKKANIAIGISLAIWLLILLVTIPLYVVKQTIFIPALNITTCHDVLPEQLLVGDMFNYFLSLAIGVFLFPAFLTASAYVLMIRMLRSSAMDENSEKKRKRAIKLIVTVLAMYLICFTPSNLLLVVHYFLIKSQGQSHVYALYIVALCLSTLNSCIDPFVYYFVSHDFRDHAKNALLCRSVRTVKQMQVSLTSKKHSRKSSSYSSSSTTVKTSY
The assay can be described thus: Binding affinity to PAR2 (unknown origin) assessed as inhibition constant.

The structures appear in SMILES notation.

From ChEMBL document CHEMBL5385908, “Screening Ultra-Large Encoded Compound Libraries Leads to Novel Protein-Ligand Interactions and High Selectivity” (J Med Chem, 2024) come the findings set out here.

For `NCCCC[C@H](NC(=O)CNC(=O)Nc1ccc2c(c1)c(CN1CCCC1)cn2Cc1c(Cl)cccc1Cl)C(=O)N[C@@H](Cc1ccccc1)C(=O)NC(c1ccccc1)c1ccccc1`, the Ki turned out to be 670 nM.

For orientation: Ki means a dissociation constant, usually derived from enzyme kinetics or from competition with a known ligand.
